The experiment addresses T1, neutrophil elastase (NE) (Homo sapiens, UniProt P08246).
T1 construct: purchased Calbiochem
T1 sequence (P08246 30-267): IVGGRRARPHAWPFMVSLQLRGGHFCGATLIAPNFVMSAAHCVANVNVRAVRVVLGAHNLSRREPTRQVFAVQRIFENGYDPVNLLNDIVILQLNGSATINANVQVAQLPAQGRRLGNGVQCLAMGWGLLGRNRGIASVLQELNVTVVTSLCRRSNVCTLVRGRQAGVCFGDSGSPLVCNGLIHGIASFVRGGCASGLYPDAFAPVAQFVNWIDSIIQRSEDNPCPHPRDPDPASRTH
Kind of experiment: Irreversible inhibition kinetics of neutrophil elastase (fluorogenic substrate progress curves). It counts as biochemical. The procedure: A range of inhibitor concentrations were prepared from a 10 mM stock solution of the test compounds (NAP533, NAP559, NAP800, NAP830, NAP849, and NAP962) in N, N-dimethylformamide (DMF). Recombinant protease activities were assayed using the cognate fluorogenic substrates as follows: trypsin (Z-Gly-Gly-Arg-NHMec), thrombin (Boc-Val-Pro-Arg-NHMec), plasmin (Boc-Val-Leu-Lys-NHMec), human neutrophil elastase (MeO-Succinyl-Ala-Ala-Pro-Val-NHMec), and chymotrypsin (Succinyl-Ala-Ala-Pro-Phe-NHMec). Each substrate was used at a final concentration of 50 μM, in the appropriate buffer for each protease. All inhibition assays were performed in microtiter plates maintained at 37°C in a final volume of 100 μL. The reaction was initiated by the addition of each protease (approx. 0.01 μg/well) and the rate of substrate hydrolysis was recorded continuously at 37°C, over a 60 min period, by measuring the rate of increase in fluorescence (at λex 360 nm, λem 480 nm) using a FLUOstar Optima microplate reader (BMG Labtech).
The resultant inhibition progress curves obtained for each inhibitor were analyzed by the kinetic models developed by [Tian and Tsou (1982)] and [Walker and Elmore (1984)], for irreversible inhibitors, with curve fitting being achieved using GraFit (Erithacus Software), as described previously ([Ferguson et al., 2016]).
FIGURE 4 Progress curves for (A), chymotrypsin-catalysed hydrolysis of Succinyl-Ala-Ala-Pro-Phe-NHMec, in the presence of varying concentrations of NAP849. (B), NE-catalysed hydrolysis of MeO-succinyl-Ala-Ala-Pro-Val-NHMec, in the presence of varying concentrations of NAP800. (C) Trypsin-catalysed of Z-Gly-Gly-Arg-NHMec, in the presence of NAP830. (D) Plasmin-catalysed hydrolysis of Boc-Val-Leu-Lys-NHMec, in the presence of varying concentrations of NAP962. Assays were carried out in PBS, pH 7.4, at 37°C, in the presence of a range of inhibitor concentrations (0.25–50 μM) and a fixed concentration (50 μM) of the appropriate substrate for each protease.
The “product progress” curves for substrate hydrolysis in the presence of an inhibitor (Figure 4) are indicative of the action of irreversible inhibitors operating through the kinetic scheme illustrated in Figure 6. In this scheme, the formation of the reversible enzyme–inhibitor complex (EI) is zcharacterized by the inhibitor constant K i. This is converted into the covalent/irreversible complex (E-I) characterized by a first-order rate constant k 3. The overall second-order rate constant for the inactivation of E by I is given by the ratio k 3/K i ([Walker and Elmore, 1984]; [Tsou, 1988]). […]
Protease inactivation by each of the compounds under study was evaluated using a fluorogenic enzyme assays. […]

“And” between values parts separate entries of the source, which are not always exact repeats. Identical values can stand only once.

With `CC(C)N(CC(=O)NCC(=O)NCC(=O)NCCCOCCOCCOCCCNC(=O)CCCCC1SCC2NC(=O)NC21)C(=O)ON1C(=O)CCC1=O` (stereo not drawn) [NAP800, Succinimidoyl-CO-NVal-Gly-Gly-PEG-Biotin], the Ki (MeO-Succinyl-Ala-Ala-Pro-Val-NHMec 50 μM, PBS pH 7.4, 37°C, mean ± SD (n=2)) was determined as 6 µM. For the same molecule, under “first-order rate constant, PBS pH 7.4, 37°C, mean ± SD (n=2)”, the “k 3” value was 0.38(± 0.06) min^−1. Under “fold greater than QUBEL1”, the “second-order rate constant (k 3/K i) relative to the analogous valine diphenyl phosphonate QUBEL1” value is “approximately five-fold”. Moreover, the “k 3 / K i” value (second-order rate constant of inactivation, PBS pH 7.4, 37°C, mean ± SD (n=2)) is 6.41 × 10^4 M^−1 min^−1 and 6.4 (± 0.57) × 10^4 M^−1 min^−1.

(Values after article PMC9555310, “Novel inhibitors and activity-based probes targeting serine proteases” (Frontiers in Chemistry, 2022).)
